Source: patent US11491144B2, “Methods of treating fragile X mental retardation syndrome” (The Florida State University Research Foundation, …, priority 2018, dated 2022)

Legend:
FX mice = test: Cliff avoidance reflex (CAR) test for motor impulsivity; format: in vivo, mouse; conditions: 20 mg/kg intraperitoneal, 30 min test, 5 min intervals
Description: (§1) The B6.129P2-Fmr1^tm1Cgr/J strain of mouse was used in the studies as it is a widely used mouse model of FX (Kazdoba et al. Intractable Rare Dis. Res. 2014, 3, 118), and C57BL/6J mice were used as the control strain of mice. Mice were housed 2-4 per cage and maintained on a “reversed” light cycle (lights-off at 7 am and lights-on at 7 pm). They were habituated to the investigator by extensive handing for at least one week prior to the beginning of behavioral analyses. Additionally, they were habituated to the behavioral test room for at least 30 min prior to the behavioral testing, and testing was conducted under dim red light.
(§2) The mice underwent a battery of tests starting on postnatal day 60 (P60). Behavioral analyses included measurements of spontaneous locomotor activity, working memory, attention, and social interactions. Approximately 12 male and/or female mice were used for each behavioral test.
Motor-impulsivity was assayed using a cliff avoidance reflex (CAR) test. The apparatus consists of a round Plexiglas platform (20 cm in diameter) supported by an iron rod (50 cm in height). The mouse is placed on the platform and observed over a period of 30 min. If the mouse falls off the platform during the 30 min period, it is picked up and returned to the platform to complete the test. The number of falls is recorded, and the data are analyzed at 5 min intervals.

male FX mice = test: Spontaneous locomotor activity assay (photobeam breaks, dark phase); format: in vivo, mouse; conditions: male FX mice (B6.129P2-Fmr1tm1Cgr/J); nor-BNI 20 mg/kg or MPH 0.75 mg/kg intraperitoneal; measured between 7 pm and 7 am
Description: as §1, §2
Spontaneous locomotor activity was assayed by using a testing chamber with photobeam motion sensors (Photobeam Activity Systems, San Diego Instruments, San Diego, Calif.). […] Photobeam breaks were recorded, scored as an ambulatory event, and grouped into hourly activity measurements for statistical analysis. Cumulative activity over the 12 hour “dark phase” was calculated. […]

Row | SMILES | Time course of cliff avoidance reflex (FX mice; female FX mice) | Time course of cliff avoidance reflex (FX mice; male FX mice) | Spontaneous locomotor activity compared to saline (male FX mice)
1 | Oc1ccc2c3c1O[C@H]1c4[nH]c5c(c4C[C@@]4(O)[C@@H](C2)N(CC2CC2)CC[C@]314)C[C@@]1(O)[C@H]2Cc3ccc(O)c4c3[C@@]1(CCN2CC1CC1)[C@H]5O4 [nor-BNI, norbinaltorphimine] | improved the time course of cliff avoidance reflex | did not produce significant effects | significant reduction in activity
2 | COC(=O)C(c1ccccc1)C1CCCCN1 (stereo not shown) [Methylphenidate, methylphenidate] |  |  | did not produce significant effects
